According to patent US12030835B2, “Substituted amide compounds useful as farnesoid X receptor modulators” (BRISTOL-MYERS SQUIBB COMPANY, priority 2019, dated 2024):

Biological target: T1, human FXR (Homo sapiens, UniProt Q96RI1)
T1 construct: expressed in transfected cells
T1 sequence (Q96RI1 262-486 limits assumed): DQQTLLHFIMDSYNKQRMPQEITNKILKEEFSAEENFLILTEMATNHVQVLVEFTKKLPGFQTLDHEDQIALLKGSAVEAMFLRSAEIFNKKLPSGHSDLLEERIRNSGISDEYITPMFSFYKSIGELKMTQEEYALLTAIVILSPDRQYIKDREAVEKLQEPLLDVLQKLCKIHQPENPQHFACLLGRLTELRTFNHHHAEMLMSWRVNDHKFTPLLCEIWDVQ
Test: transient human FXR/Gal4-luciferase reporter assay
Type: cell-based
Settings: Gal4-hFXR (ligand binding domain) fusion transiently transfected in HEK293 Gal4-luciferase reporter cells; overnight incubation; response as percentage of 8 μM GW-4064 control
Description: A Gal4-hFXR fusion construct reporter system was used as the primary assay to characterize compound activity. A construct including 5 copies of the Gal4 promoter response element upstream of a firefly luciferase reporter cDNA was stably expressed in HEK293 cells. This reporter cell line was maintained in Dulbecco's Modified Eagle's medium (DMEM; Gibco) supplemented with 1% penicillin-streptomycin (P/S) solution, 500 μg/ml Zeocin and 10% charcoal/dextran-treated fetal bovine serum (cs-FBS) at 37° C. in a humidified 5% CO2 atmosphere. Another plasmid was constructed in which the human cytomegalovirus promoter in the pcDNA3.1 vector directs the expression of the cDNA encoding a fusion protein comprised of the DNA binding domain from the Gal4 transcription factor fused to the ligand binding domain from human FXR.
The day prior to transfection, the reporter cells in culture are detached from the plate with trypsin and plated into a T75 flask at a sufficient density to achieve approximately 90% confluence the next morning. The transfection reagents are prepared by separately diluting 25 μg of the pcDNA3.1-Gal4-FXR plasmid into 1.87 mL of Opti-MEM (Thermo-Fisher), and 40 μL of Lipofectamine 2000 (Thermo-Fisher) into 1.87 mL of Opti-MEM, and then adding the diluted DNA solution into the diluted Lipofectamine 2000 solution and incubating at room temperature for 15-20 minutes. The mixture is further diluted with 10 ml of a solution comprised of DMEM, 10% cs-FBS, and 1% P/S immediately prior to transferring to the cells. The maintenance culture media is aspirated from the cells and the final transfection mixture is added before the cells are incubated overnight at 37° C. in a humidified 5% CO2 atmosphere. This protocol can be scaled up, and the transiently transfected cells can be cryopreserved in an assay-ready format.
For compound testing, 100 nL of the compounds (serial dilutions in DMSO) are dispensed with an Echo acoustic dispenser (Labcyte) into the wells of a Corning/Costar clear bottom 384-well white plate. The transfected cells are harvested, counted, and diluted such that 10-25,000 cells in 25 μL are plated into each well of the 384-well compound assay plate. The compound-treated cells are incubated overnight at 37° C. in a humidified 5% CO2 atmosphere. The next morning 25 μL of Steady-Glo (Promega) are added to each well of the plate, the mixture is incubated for 15 min. with shaking, and luminescence is measured on an Envision (Perkin Elmer) plate reader.

| SMILES | EC50 |
| --- | --- |
| COC(=O)/C=C/c1cccc(N(C(=O)C2CCCCC2)C(C)C23CCC(c4nc(C)no4)(CC2)CC3)c1 (single isomer, unassigned) [Example 46, Methyl (E)-3-(3-(N-(1-(4-(3-methyl-1,2,4-oxadiazol-5-yl)bicyclo[2.2.2]octan-1-yl)ethyl)cyclohexanecarboxamido)phenyl)acrylate] | 302 nM |
| COC(=O)/C=C/c1cccc(N(C(=O)C2CCCCC2)C(C)C23CCC(c4nc(C)no4)(CC2)CC3)c1 (single isomer, unassigned) [Example 47, Methyl (E)-3-(3-(N-(1-(4-(3-methyl-1,2,4-oxadiazol-5-yl)bicyclo[2.2.2]octan-1-yl)ethyl)cyclohexanecarboxamido)phenyl)acrylate] | 152 nM |
| COC(=O)/C=C/c1cccc(N(CC23CCC(c4ccc(N(C)C)cc4)(CC2)CC3)C(=O)C2CCCCC2)c1 [Example 1, Methyl (E)-3-(3-(N-((4-(4-(dimethylamino)phenyl)bicyclo[2.2.2]octan-1-yl)methyl)cyclohexanecarboxamido)phenyl)acrylate] | 78 nM |
| CN(C)c1ccc(C23CCC(CN(C(=O)C4CCCCC4)c4cccc(/C=C/C(=O)O)c4)(CC2)CC3)cc1 [Example 2, (E)-3-(3-(N-((4-(4-(dimethylamino)phenyl)bicyclo[2.2.2]octan-1-yl)methyl)cyclohexanecarboxamido)phenyl)acrylic Acid] | 1520 nM |
| COC(=O)/C=C/c1cccc(N(CC23CCC(c4ccc(N5CCOCC5)cc4)(CC2)CC3)C(=O)C2CCCCC2)c1 [Example 3, (E)-methyl 3-(3-(N-((4-(4-morpholinophenyl)bicyclo[2.2.2]octan-1-yl)methyl)cyclohexanecarboxamido)phenyl)acrylate] | 165 nM |
| COC(=O)/C=C/c1cccc(N(CC23CCC(c4ccc(N5CCCC5)cc4)(CC2)CC3)C(=O)C2CCCCC2)c1 [Example 4, (E)-methyl 3-(3-(N-((4-(4-(pyrrolidin-1-yl)phenyl)bicyclo[2.2.2]octan-1-yl)methyl)cyclohexanecarboxamido)phenyl)acrylate] | 520 nM |
| COC(=O)/C=C/c1cccc(N(CC23CCC(c4ccc(N(C)C)cc4)(CC2)CC3)C(=O)C2CCOCC2)c1 [Example 6, Methyl (E)-3-(3-(N-((4-(4-(dimethylamino)phenyl)bicyclo[2.2.2]octan-1-yl)methyl)tetrahydro-2H-pyran-4-carboxamido)phenyl)acrylate] | 212 nM |
| COC(=O)/C=C/c1cccc(N(CC23CCC(c4ccccc4)(CC2)CC3)C(=O)C2CCCCC2)c1 [Example 7, Methyl (E)-3-(3-(N-((4-phenylbicyclo[2.2.2]octan-1-yl)methyl)cyclohexanecarboxamido)phenyl)acrylate] | 395 nM |
| COC(=O)/C=C/c1cccc(N(CC23CCC(c4ccc5c(cnn5C)c4)(CC2)OC3)C(=O)C2CCOCC2)c1 [Example 8, (E)-Methyl 3-(3-(N-((1-(1-methyl-1H-indazol-5-yl)-2-oxabicyclo[2.2.2]octan-4-yl)methyl)tetrahydro-2H-pyran-4-carboxamido)phenyl)acrylate] | 1600 nM |
| COC(=O)/C=C/c1cccc(N(CC23CCC(c4ccc5c(cnn5C)c4)(CC2)OC3)C(=O)C2CCN(C)CC2)c1 [Example 9, (E)-Methyl 3-(3-(1-methyl-N-((1-(1-methyl-1H-indazol-5-yl)-2-oxabicyclo[2.2.2]octan-4-yl)methyl)piperidine-4-carboxamido)phenyl)acrylate] | 4720 nM |
| COC(=O)/C=C/c1cccc(N(CC23CCC(c4ccc(OC)cc4)(CC2)OC3)C(=O)C2CCCCC2)c1 [Example 10, Methyl (E)-3-(3-(N-((1-(4-methoxyphenyl)-2-oxabicyclo[2.2.2]octan-4-yl)methyl)cyclohexanecarboxamido)phenyl)acrylate] | 319 nM |
| COC(=O)C1=Cc2cccc(N(CC34CCC(c5ccc(N6CCOCC6)cc5)(CC3)CC4)C(=O)C3CCCCC3)c2CC1 [Example 11, Methyl 5-(N-((4-(4-morpholinophenyl)bicyclo[2.2.2]octan-1-yl)methyl)cyclohexanecarboxamido)-3,4-dihydronaphthalene-2-carboxylate] | 2740 nM |
| COC(=O)C1=Cc2cccc(N(CC34CCC(c5ccc(N(C)C)cc5)(CC3)CC4)C(=O)C3CCCCC3)c2CC1 [Example 12, methyl 5-(N-((4-(4-(dimethylamino)phenyl)bicyclo[2.2.2]octan-1-yl)methyl)cyclohexanecarboxamido)-3,4-dihydronaphthalene-2-carboxylate] | 2580 nM |
| CCN(CC)c1ccc(C23CCC(CN(C(=O)C4CCCCC4)c4cccc5c4CCC(C(=O)OC)=C5)(CC2)CC3)cc1 [Example 13, methyl 5-(N-((4-(4-(diethylamino)phenyl)bicyclo[2.2.2]octan-1-yl)methyl)cyclohexanecarboxamido)-3,4-dihydronaphthalene-2-carboxylate] | 912 nM |
| COC(=O)/C=C(\C)c1cccc(N(CC23CCC(c4ccc(N5CCOCC5)cc4)(CC2)CC3)C(=O)C2CCCCC2)c1 [Example 14, Methyl (E)-3-(3-(N-((4-(4-morpholinophenyl)bicyclo[2.2.2]octan-1-yl)methyl)cyclohexanecarboxamido)phenyl)but-2-enoate] | 1150 nM |
| COC(=O)/C=C/c1cccc(N(CC23CCC(c4ccc(OC)cc4)(CC2)CC3)C(=O)C2CCCCC2)c1 [Example 15, Methyl (E)-3-(3-(N-((4-(4-methoxyphenyl)bicyclo[2.2.2]octan-1-yl)methyl)cyclohexanecarboxamido)phenyl)acrylate] | 243 nM |
| COC(=O)/C=C(\C)c1cccc(N(CC23CCC(c4ccc(OC)cc4)(CC2)CC3)C(=O)C2CCCCC2)c1 [Example 16, Methyl (E)-3-(3-(N-((4-(4-methoxyphenyl)bicyclo[2.2.2]octan-1-yl)methyl)cyclohexanecarboxamido)phenyl)but-2-enoate] | 576 nM |
| COc1ccc(C23CCC(CN(C(=O)C4CCCCC4)c4cccc5c4CCC(C(=O)O)=C5)(CC2)CC3)cc1 [Example 17, 5-(N-((4-(4-methoxyphenyl)bicyclo[2.2.2]octan-1-yl)methyl)cyclohexanecarboxamido)-3,4-dihydronaphthalene-2-carboxylic Acid] | 2240 nM |
| COC(=O)C1=Cc2cccc(N(CC34CCC(c5ccc(OC)cc5)(CC3)CC4)C(=O)C3CCCCC3)c2CC1 [Example 18, Methyl 5-(N-((4-(4-methoxyphenyl)bicyclo[2.2.2]octan-1-yl)methyl)cyclohexanecarboxamido)-3,4-dihydronaphthalene-2-carboxylate] | 1810 nM |
| COC(=O)/C=C(\C)c1cccc(N(CC23CCC(c4nc(C)no4)(CC2)CC3)C(=O)C2CCCCC2)c1 [Example 19, Methyl (E)-3-(3-(N-((4-(3-methyl-1,2,4-oxadiazol-5-yl)bicyclo[2.2.2]octan-1-yl)methyl)cyclohexanecarboxamido)phenyl)but-2-enoate] | 551 nM |
| COC(=O)/C=C/c1cccc(N(CC23CCC(c4nc(C)no4)(CC2)CC3)C(=O)C2CCCCC2)c1 [Example 20, Methyl (E)-3-(3-(N-((4-(3-methyl-1,2,4-oxadiazol-5-yl)bicyclo[2.2.2]octan-1-yl)methyl)cyclohexanecarboxamido)phenyl)acrylate] | 56 nM |
